This is an account of results in ChEMBL document CHEMBL1201862, “PubChem BioAssay data set” (2004).

The GI50 is the concentration that inhibits growth by half.

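How tested: cells in 96-well plates exposed to compound for 48 hours at five concentrations. The concentration for 50% growth inhibition is given as GI50.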 Calls of active or inactive are those of the source. No stated cut-off is given here; in the data, active = GI50 up to about 1.1 µM and inactive = higher.

Test systems include XF498; DLD-1; RXF 631; KM-20L2; DMS-273; SNB-78; DMS-114; M19-MEL; HOP-18.
Holding throughout (assay): DTP human tumour cell line panel, 48 h

`C/C(CC(=O)Nc1cccc([N+](=O)[O-])c1)=N\NC(=O)CC#N`: the GI50 with XF498, in the assay on DLD-1, with RXF 631, in the assay on KM-20L2, with DMS-273 and in the assay with SNB-78 was > 100 µM (inactive) each time. In the assay with DMS-114, the GI50 was > 100 µM (inactive).

On to `O=C(Cc1nc2ccc(C(=O)c3ccccc3)cc2nc1O)C(=O)Nc1ccc(C(F)(F)F)cc1[N+](=O)[O-]`, for which the GI50 was 27.5 µM (inactive) in the assay on XF498; > 100 µM (inactive) in the assay with DLD-1; 58.1 µM (inactive) with M19-MEL; 96.6 µM (inactive) with RXF 631; 56.4 µM (inactive) in the assay with KM-20L2; 65.2 µM (inactive) in the assay on HOP-18. Also, the GI50 is 99.1 µM (inactive) in the assay with DMS-273 and 81.1 µM (inactive) in the assay on SNB-78.

In the case of `O=C1CCCCCCCCCCC1CN1CCCCC1` (configuration not stated), the GI50 in the assay with XF498 was 89.5 µM (inactive); in the assay on DLD-1, 54.8 µM (inactive); in the assay with M19-MEL it was > 100 µM (inactive); in the assay with KM-20L2, 31.3 µM (inactive); in the assay on DMS-273, > 100 µM (inactive); in the assay on SNB-78, > 100 µM (inactive). The GI50 in the assay on DMS-114 was 60.5 µM (inactive).

Take `COC1(OC)CC2C(=O)N(Cc3ccccc3)C1C(S(=O)(=O)c1ccccc1)C2C(C)S(=O)(=O)c1ccccc1` (configuration not stated): the GI50 in the assay with XF498, with DLD-1, in the assay on M19-MEL, in the assay with KM-20L2, in the assay on HOP-18 and in the assay on DMS-273 was > 100 µM (inactive) each time. Also, the results for the GI50 in the assay on SNB-78 and in the assay on DMS-114 were > 100 µM (inactive) and 75.5 µM (inactive), respectively.

As to `COc1ccc(-c2nc(Sc3c([N+](=O)[O-])ncn3C)n[nH]2)cc1`, the GI50 in the assay on XF498 was 2.98 µM (inactive); in the assay on DLD-1, 2.49 µM (inactive); in the assay with M19-MEL, 4.9 µM (inactive); in the assay on RXF 631 it was 3.3 µM (inactive); in the assay on HOP-18 it was 0.296 µM (active); in the assay on DMS-273 it was 2.18 µM (inactive). For the same compound, the figures for the GI50 with SNB-78 and in the assay with DMS-114 were 4.22 µM (inactive) and 2.41 µM (inactive), respectively.

Turning to `CC(=O)Oc1cc(Cl)c(OC(C)=O)c2c(OC(C)=O)c(C)c(O[Si](C)(C)C(C)(C)C)cc12`, the GI50 with XF498 was 17.5 µM (inactive); in the assay on DLD-1 it was 1.85 µM (inactive); in the assay on KM-20L2, 17.4 µM (inactive); in the assay on DMS-273 it was 5.47 µM (inactive); with SNB-78, 3.12 µM (inactive); in the assay with DMS-114, 3 µM (inactive).

As to `CN(c1ccccc1)c1nc(=[N+]2CCCC2)ss1.[O-][Cl+3]([O-])([O-])[O-]`, the GI50 was 20.6 µM (inactive) with RXF 631; > 100 µM (inactive) in the assay with KM-20L2; > 100 µM (inactive) in the assay on HOP-18; 6.56 µM (inactive) in the assay on DMS-273; > 100 µM (inactive) in the assay with SNB-78; 7.66 µM (inactive) with DMS-114.

Consider `Cc1ccccc1NC(=O)C1C(=O)N(c2ccccc2C)C(=O)/C1=N\NC(N)=S` (configuration not stated), for which the GI50 with XF498, in the assay with DLD-1, in the assay on RXF 631, in the assay on KM-20L2 and in the assay with DMS-273 was > 100 µM (inactive) in each case.

As for `C/C(=N/Nc1ccc([N+](=O)[O-])cc1[N+](=O)[O-])C(CC(C(=O)NCc1ccccc1)/C(C)=N\Nc1ccc([N+](=O)[O-])cc1[N+](=O)[O-])C(=O)NCc1ccccc1` (configuration not stated), the GI50 was 12.1 µM (inactive) in the assay on DLD-1; 11.5 µM (inactive) with M19-MEL; 4.29 µM (inactive) in the assay on RXF 631; 14.2 µM (inactive) in the assay on KM-20L2; 2.69 µM (inactive) with HOP-18; 8.02 µM (inactive) with DMS-273. The GI50 with SNB-78 is 9.16 µM (inactive); in the assay on DMS-114 it was 9.91 µM (inactive).

Turning to `Clc1ccc(Cl)c2[s+]snc12`, the GI50 in the assay on XF498 was > 100 µM (inactive); in the assay with DLD-1 it was 44.6 µM (inactive); with M19-MEL, 54.7 µM (inactive); with RXF 631 it was > 94.6 µM (inactive); in the assay with KM-20L2, > 100 µM (inactive); in the assay on HOP-18 it was > 100 µM (inactive). Moreover, the GI50 was 27 µM (inactive) with DMS-273, > 100 µM (inactive) with SNB-78 and 24.9 µM (inactive) in the assay on DMS-114.

For the compound `COc1cccc(/C=C2\C(=O)N(C(=O)c3ccc(NC(C)=O)cc3)N=C2C)c1`, the GI50 in the assay with XF498, with DLD-1, with M19-MEL, with DMS-273, with SNB-78 and in the assay on DMS-114 was > 100 µM (inactive) throughout.

For the compound `O=C(Cn1ccnc1[N+](=O)[O-])c1ccc(F)cc1`, the GI50 with XF498, in the assay on M19-MEL, in the assay with KM-20L2, in the assay with HOP-18, in the assay with DMS-273 and in the assay on DMS-114 was > 100 µM (inactive) in each case.

Consider `CC(=O)c1c2c(cc3c1CC1(C3)Cc3cc4c(c(C(=O)O)c3C1)CCC4)CCC2` (configuration not stated), for which the GI50 is 57.1 µM (inactive) with XF498; 37.1 µM (inactive) in the assay with DLD-1; 37 µM (inactive) in the assay on M19-MEL; 79.8 µM (inactive) in the assay with HOP-18; 35.6 µM (inactive) in the assay on DMS-273; 55.6 µM (inactive) with SNB-78. For the same compound, in the assay with DMS-114, the GI50 is 36.3 µM (inactive).

Regarding `Cc1cc(O)c(C(=O)O)c2c1C(=O)c1c(O)c(OCC(O)C(O)C(O)C(O)CO)c(O)c(O)c1C2=O.NCCNCCO` (configuration not stated), the GI50 in the assay with XF498, with DLD-1, with M19-MEL, in the assay with KM-20L2, in the assay on HOP-18 and in the assay with SNB-78 was > 100 µM (inactive) in each case. Moreover, the GI50 with DMS-114 was > 100 µM (inactive).

Turning to `COC(=O)C1(c2ccc(OC)cc2)NC(c2ccccc2)C2C(=O)N(c3ccc(OC)cc3)C(=O)C21` (configuration not stated), the GI50 with XF498 is > 100 µM (inactive); in the assay with DLD-1, > 100 µM (inactive); in the assay with RXF 631 it was > 100 µM (inactive); with KM-20L2 it was > 100 µM (inactive); in the assay with HOP-18, < 0.01 µM (active); in the assay on DMS-273 it was > 100 µM (inactive). In addition, the GI50 in the assay with SNB-78 and in the assay on DMS-114 was > 100 µM (inactive) throughout.

For the compound `CN(C)C(=N)NC(=S)N(C)C`, the GI50 in the assay with XF498, with DLD-1, in the assay on M19-MEL, in the assay with RXF 631, in the assay with KM-20L2 and in the assay on HOP-18 was > 100 µM (inactive) throughout. In addition, the GI50 in the assay with DMS-273, with SNB-78 and in the assay on DMS-114 was > 100 µM (inactive) in each case.

Regarding `Cc1cc(C)nc(NS(=O)(=O)c2ccc(NC(=O)COC(=O)c3cccc4c(=O)c5ccccc5[nH]c34)cc2)n1`, the GI50 in the assay on XF498 is 33.3 µM (inactive); with DLD-1, 45.7 µM (inactive); in the assay on M19-MEL, 20.4 µM (inactive); in the assay with KM-20L2, 38.6 µM (inactive); in the assay with DMS-273, 41.2 µM (inactive); in the assay with SNB-78, 82.2 µM (inactive). The GI50 with DMS-114 is 56.5 µM (inactive).

Turning to `CCOC(=O)[C@H]1Nc2ccc(C)cc2C2c3ccccc3CC21` (some centres not stated), the GI50 in the assay on DLD-1, in the assay with M19-MEL, in the assay with KM-20L2, in the assay with HOP-18, with DMS-273 and in the assay with SNB-78 was > 100 µM (inactive) in each case. For the same compound, the GI50 in the assay on DMS-114 was > 100 µM (inactive).

For the compound `OC12CCC3(O)c4ccccc4C3C1c1ccccc12` (configuration not stated), the GI50 in the assay with XF498, with M19-MEL, in the assay on KM-20L2, with HOP-18, with DMS-273 and in the assay on SNB-78 was > 100 µM (inactive) each time.

On to `N#COc1ccc(Oc2ccc(OC#N)cc2)cc1`, for which the GI50 was > 100 µM (inactive) in the assay with XF498; 63 µM (inactive) in the assay on DLD-1; > 100 µM (inactive) in the assay with M19-MEL; 17.1 µM (inactive) with RXF 631; > 100 µM (inactive) in the assay on KM-20L2; > 100 µM (inactive) with HOP-18. The GI50 was > 100 µM (inactive) in the assay on SNB-78 and 32.1 µM (inactive) with DMS-114.

With `Nc1cc[nH]c(=O)n1`, the GI50 with XF498, in the assay with DLD-1, with M19-MEL, in the assay on RXF 631, with KM-20L2 and with HOP-18 was > 100 µM (inactive) in each case. The GI50 in the assay on DMS-273, in the assay with SNB-78 and with DMS-114 was > 100 µM (inactive) in each case.

For `CC(=O)OC1CC[C@@]2(C)C(CC(OC3OC(CO)C(O)C(O)C3O)[C@]3(C)C2CCC24CC23CC[C@H]4C(C)CC(O)[C@@H](O)C(C)(C)O)C1(C)C` (some centres not stated), the GI50 with DLD-1 is 15.5 µM (inactive); in the assay with M19-MEL it was 8.07 µM (inactive); in the assay on RXF 631, 29 µM (inactive); in the assay on KM-20L2, 19.9 µM (inactive); with HOP-18 it was 14 µM (inactive); in the assay on DMS-273 it was 18.2 µM (inactive). Also, the results for the GI50 in the assay with SNB-78 and with DMS-114 were > 5 µM (inactive) and 10.8 µM (inactive), respectively.

On to `O=S1(=O)C[C@@H](O)[C@H](O)CS1`, for which the GI50 in the assay with XF498, in the assay on DLD-1, with M19-MEL, with KM-20L2, in the assay on HOP-18 and in the assay on DMS-273 was > 100 µM (inactive) in each case. The GI50 in the assay on SNB-78 and in the assay with DMS-114 was > 100 µM (inactive) each time.

On to `COc1cccc(OC)c1C(=O)OCc1ccccc1`, for which the GI50 in the assay on XF498, with DLD-1, with M19-MEL, with KM-20L2 and with DMS-114 was > 100 µM (inactive) each time.

With `c1ccc2c(c1)[nH]c1c2ncc2[nH]c3ccccc3c21`, the GI50 was 1.78 µM (inactive) with XF498; 3.44 µM (inactive) in the assay on DLD-1; 5.35 µM (inactive) in the assay on M19-MEL; 2.16 µM (inactive) in the assay with RXF 631; 3.71 µM (inactive) in the assay on KM-20L2; 2.88 µM (inactive) with HOP-18. Besides, the results for the GI50 with DMS-273, in the assay on SNB-78 and in the assay on DMS-114 were 2.45 µM (inactive), 4.95 µM (inactive) and 2.44 µM (inactive), respectively.
